Assay results: patent US8298328B2, “Amorphous metal salt for facilitating the handling property of portland cements and dental applications thereof” (Taipei Medical University, priority 2008, dated 2012)

Tests used:
[1] = Crystal form by wide-angle X-ray diffraction (XRD); format: physicochemical; settings: XRD of powder
Procedure: The crystal form of the CLG powder prepared above is determined by wide-angle x-ray diffraction (XRD). First, 1.00 g of CLG powder was placed in a sample carrier, and the powder filling was pressed by a slide. Then, the sample was placed on an X-ray diffractometer (MaxRC, Rigaku, Japan), and X-ray diffraction was performed by using Kα radiation (λ=1.541838A) at scan rate of 10°/min and 20 scanning angle from 5° to 60°. The peaks of X-ray diffraction data were analyzed in accordance with the Joint Committee on Powder Diffraction Standards (JCPDS).

[2] = Water solubility of the divalent metal salt powder; settings: 25° C., dried powder
[3] = filtrate after reaction with CaO, before drying
Procedure: After mixing and stirring for 1 hour, the solution was filtered, and the filtrate was collected.

O.O.O=S(=O)([O-])[O-].[Ca+2] [Comparative Example 1, Calcium Sulfate Dehydrate, reference compound]
Crystal form [1]: Crystalline

CC(O)C(=O)[O-].CC(O)C(=O)[O-].[Ca+2] (stereo not drawn) [Comparative Example 3, Calcium Lactate, reference compound]
Crystal form [1]: Crystalline
Crystal form ([1]; listed as CL): crystalline

CC(O)C(=O)[O-].O=C([O-])[C@H](O)[C@@H](O)[C@H](O)[C@H](O)CO.[Ca+2] [Example 1, Calcium Lactate Gluconate]
Solubility (water solubility) [2]: 35.7~41.0 g/100 ml
Solubility (water solubility) ([2]; listed as CLG): 35.7˜41.0 g/100 ml
Crystal form [1]: Amorphous
Crystal form ([1]; listed as CLG): amorphous
pH value of the filtrate solution [3]: 9.8

O=C([O-])[C@H](O)[C@@H](O)[C@H](O)[C@H](O)CO.O=S(=O)([O-])O.[Ca+2] [Example 3, Calcium Sulfate Gluconate]
Solubility (water solubility) [2]: 30.1~31.7 g/100 ml
Solubility (water solubility) ([2]; listed as CSG): 30.1˜31.7 g/100 ml
Crystal form [1]: Amorphous
Crystal form ([1]; listed as CSG): amorphous
pH value of the filtrate solution [3]: 9.3

Calcium Gluconate [Comparative Example 2, reference compound]
Crystal form [1]: Crystalline
Crystal form ([1]; listed as CG): crystalline

Calcium Lactate Sulfate [Example 2]
Crystal form [1]: Amorphous
Crystal form ([1]; listed as CLS): amorphous
pH value of the filtrate solution [3]: 9.7
